This is an account of results in US10793543B2, “Selective C-KIT kinase inhibitor” (PRECEDO PHARMACEUTICALS CO., LTD, priority 2016, dated 2020).

The structures appear in SMILES notation.

In series [1] the test system is GIST-882 cells. As to the kind of experiment: Cancer cell proliferation, CCK-8, GIST-882. The settings on record: Homo sapiens, GIST882, GIST-882, KIT WT, 72 hours. It counts as cell-based. An excerpt:
(§1) In the present example, the following cells were used: chronic myelogenous leukemia cells K562 (expressing P210 Bcr-Abl mutant gene), human megakaryocytic leukemia cells MEG-01 (expressing P210 Bcr-Abl mutant gene), human peripheral blood basophilic leukemia cells Ku812 (expressing Bcr-Abl mutant gene) (all above cells purchased from ATCC, USA), human gastrointestinal stromal tumor cell lines GIST-T1 cells (expressing wild-type C-KIT gene) (purchased from Cosmo Bio Co., Ltd., Japan), human gastrointestinal stromal tumor cell lines GIST-882 cells (expressing wild-type C-KIT gene) (presented by the Professor Gray Lab, Dana-Farber Cancer Institute, Harvard University, USA), mouse pro-B cells BaF3 (purchased from ATCC, USA).
(§2) The cells were incubated for 72 hours, and then the number of viable cells was quantified with a microplate reader by using CCK-8 Cell Viability Assay Kit (purchased from Bestbio Company, Shanghai, China) (CCK-8 can be reduced by dehydrogenase in living cells to a highly water-soluble yellow formazan product, and the amount of formazan produced is proportional to the number of living cells).

Series [2] has as its system Tel-cKit/L576P-BaF3 cells (KIT L576P). As to the kind of experiment: Cell proliferation, CCK-8, Tel-cKit/L576P-BaF3. It counts as cell-based. The settings on record: Mus musculus, 72 hours.
Text: (§3) In addition, in the present example, further uses: mouse P210/BaF3 (stably expressing P210 Bcr-Abl mutant gene), mouse Tel-ABL-BaF3 (stably expressing wild-type ABL kinase), mouse Tel-cKit-BaF3 (stably expressing C-KITwild-type kinase), mouse Tel-cKit/V559D-BaF3 (stably expressing C-KIT V559D mutant kinase), mouse Tel-cKit/V559D/V654A-BaF3 (stably expressing C-KIT V559D/V654A mutant kinase), mouse Tel-cKit/N822K-BaF3 (stably expressing C-KIT N822K mutant kinase), mouse Tel-cKit/V654A-BaF3 (stably expressing C-KIT V654A mutant kinase), mouse Tel-cKit/L567P-BaF3 (stably expressing C-KIT L567P mutant kinase), mouse Tel-cKit/T670I-BaF3 (stably expressing C-KIT T670I mutant kinase), mouse Tel-PDGFRα-BaF3 (stably expressing PDGFRα kinase), mouse Tel-PDGFRβ-BaF3 (stably expressing PDGFRβ kinase), mouse Tel-VEGFR2-BaF3 (stably expressing VEGFR2 kinase), mouse Tel-RET-BaF3 (stably expressing RET kinase). The above cell lines were all constructed by our laboratory according to the following method: the kinase region sequences of human P210 Bcr-Abl, ABL, C-KIT, C-KIT V559D, C-KIT V559D/V654A, C-KIT N822K, C-KIT V654A, C-KIT L567P, C-KIT T670I, PDGFRα, PDGFRβ, VEGFR2, RET were amplified respectively by PCR, inserted respectively into MSCV-Puro vectors harboring N-terminal TEL fragment and/or NPM fragment and/or TPR fragment (Clontech), then the vectors were stably transfected into mouse BaF3 cells by retrovirus methods and growth factor IL-3 was removed, eventually obtaining cell lines that are transferred protein (P210 Bcr-Abl, ABL, C-KIT, C-KIT V559D, C-KIT V559D/V654A, C-KIT N822K, C-KIT V654A, C-KIT L567P, C-KIT T670I, PDGFRα, PDGFRβ, VEGFR2, RET)-dependent.
as §2

Series [3] has as its system phosphorylation of Bcr-Abl kinase and pathway proteins in K562 cells. As to the kind of experiment: Effects on cell signaling pathways (phosphorylation), K562. It is filed as cell-based, human. Conditions: K562, concentration up to 3 μM, 2 hours.
For the next series, the system named is GIST-T1 cells. As to the kind of experiment: Cancer cell proliferation, CCK-8, GIST-T1. The settings on record: Homo sapiens, GISTT1, GIST-T1, KIT WT, 72 hours. It is filed as cell-based.
Text: as §1, §2

In series [4] the test system is Tel-cKit/T670I-BaF3 cells (KIT T670I). As to the kind of experiment: Cell proliferation, CCK-8, Tel-cKit/T670I-BaF3. The settings on record: Mus musculus, 72 hours. It is filed as cell-based.
Text: as §3, §2

For series [5], the system named is P210/BaF3 cells (P210 Bcr-Abl). As to the kind of experiment: Cell proliferation, CCK-8, P210/BaF3. The settings on record: Mus musculus; P210/BaF3, Bcr-Abl, 72 hours, CCK-8; read-out: GI50. It counts as cell-based.
Text: In addition, in the present example, further uses: mouse P210/BaF3 (stably expressing P210 Bcr-Abl mutant gene), mouse Tel-ABL-BaF3 (stably expressing wild-type ABL kinase), mouse Tel-cKit-BaF3 (stably expressing C-KITwild-type kinase), mouse Tel-cKit/V559D-BaF3 (stably expressing C-KIT V559D mutant kinase), mouse Tel-cKit/V559D/V654A-BaF3 (stably expressing C-KIT V559D/V654A mutant kinase), mouse Tel-cKit/N822K-BaF3 (stably expressing C-KIT N822K mutant kinase), mouse Tel-cKit/V654A-BaF3 (stably expressing C-KIT V654A mutant kinase), mouse Tel-cKit/L567P-BaF3 (stably expressing C-KIT L567P mutant kinase), mouse Tel-cKit/T670I-BaF3 (stably expressing C-KIT T670I mutant kinase), mouse Tel-PDGFRα-BaF3 (stably expressing PDGFRα kinase), mouse Tel-PDGFRβ-BaF3 (stably expressing PDGFRβ kinase), mouse Tel-VEGFR2-BaF3 (stably expressing VEGFR2 kinase), mouse Tel-RET-BaF3 (stably expressing RET kinase). […]
as §2

The test system of series [6] is Tel-cKit/V654A-BaF3 cells (KIT V654A). In words: Cell proliferation, CCK-8, Tel-cKit/V654A-BaF3. It counts as cell-based. Conditions: Mus musculus, 72 hours.
Text: as §3, §2

In series [7] the test system is GIST-882 cells. As to the kind of experiment: Apoptosis, PARP and Caspase 3 cleavage by Western Blot, GIST-882. It is filed as cell-based, human. The settings on record: GIST-882, 0.3 μM, 72 hours. The text has this:
The effects of different concentrations of drugs on protein cleavage of DNA repairase poly(ADP-ribose) polymerase (PARP) and Caspase (cysteinyl aspartate-specific proteinase) 3 at different periods of time were examined by Western Blot.
On the technique in general: A western blot detects proteins with antibodies after separation by electrophoresis.

Series [8] deals with gastrointestinal stromal tumor cell lines GIST-T1. As to the kind of experiment: Mouse tumor model of GIST-T1 cells. It is filed as in vivo. The settings on record: for tumor inhibition rate: Day 28 after administration. As for the experimental part:
1. 4-6 week-old Bal b/c female mice were purchased from Shanghai SLAC Experimental Animal Co., Ltd., and were raised in a SPF-level laboratory. Drinking water and padding were both subjected to aseptic processing via high-pressure disinfection, and all operations of the mice were conducted under aseptic conditions;
2. About 5×10^6 gastrointestinal stromal tumor cell lines GIST-T1 or GIST-882 (purchased from ATCC) were respectively injected subcutaneously at left side back of all mice at Day 0;
5. Mice were sacrificed on Day 36 (for GIST-882 mouse model) or Day 43 (GIST-T1 mouse model) and subcutaneous tumors were taken out and weighed for comparison;
6. Tumor tissue specimens were prepared into protein lysate samples for further usage;
7. Growth trend of subcutaneous tumors from Day 16 to Day 43 was derived, and tumor volume was calculated as length×width×width/2 mm^3.

Series [9] has as its system Tel-cKit/V559D-BaF3 cells (KIT V559D). In words: Cell proliferation, CCK-8, Tel-cKit/V559D-BaF3. Conditions: Mus musculus, 72 hours. It is filed as cell-based.
Text: as §3, §2

In series [10] the test system is Tel-PDGFRα-BaF3 cells (PDGFRα). In words: Cell proliferation, CCK-8, Tel-PDGFRα-BaF3. The settings on record: Mus musculus, 72 hours. It is filed as cell-based.
Text: as §3, §2

The test system of series [11] is Tel-cKit/N822K-BaF3 cells (KIT N822K). In words: Cell proliferation, CCK-8, Tel-cKit/N822K-BaF3. It is filed as cell-based. Conditions: Mus musculus, 72 hours.
Text: as §3, §2

For series [12], the system named is MEG-01 cells (P210 Bcr-Abl). In words: Cancer cell proliferation, CCK-8, MEG-01. It counts as cell-based. Conditions: Homo sapiens; MEG-01, P210 Bcr-Abl, 72 hours, CCK-8; read-out: GI50.
Text: as §1, §2

Series [13] deals with Tel-RET-BaF3 cells (RET WT). As to the kind of experiment: Cell proliferation, CCK-8, Tel-RET-BaF3. It counts as cell-based. Conditions: Mus musculus, 72 hours.
Text: as §3, §2

One may read the GI50 as the concentration that inhibits growth by half. `Cc1ccc(NC(=O)c2cccc(C(F)(F)F)c2)cc1OC1CCN(C(=O)c2ccncc2)CC1` [Compound 4]: the GI50 with GIST-882 cells [1] came out at 43 nM; in series [2] it was 148 nM; with GIST-T1 cells, 21 nM; in series [4], 5310 nM; in series [5], 6050 nM; in [6], 1030 nM. Also, the GI50 in series [9] turned out to be 40 nM; in series [10], 38 nM; in series [11], 940 nM; in series [12] it was 7430 nM; in [13], 590 nM. Moreover, in [3], the “phosphorylation of Bcr-Abl kinase” value is “no effect”. Further, in series [3], the “phosphorylation of proteins such as AKT, ErK” value is “no effect”. In the series on GIST-882 cells [7], the “cleavage of PARP and Caspase 3” value is “significant cleavage”. Also, the “inhibitory effect on mouse tumors” value in series [8] (25 mg/kg oral daily, Day 4 after administration) was “certain inhibitory effect”. Moreover, the tumor inhibition rate is 65.3% in [8] (50 mg/kg oral daily) and 73.8% in series [8] (100 mg/kg oral daily). The “effect on body weight of mice” value in [8] (oral daily dosing) is recorded as “no effect on the body weight of mice”.
